These results are taken from patent US20100311757A1, “Salarins And Tulearins, Compositions And Uses Thereof” (RAMOT AT TEL-AVIV UNIVERSITY LTD., priority 2007, published 2010).

In general, inhibition refers to how much of the control response was suppressed. Low readings indicate a response near the control, high ones a response far below the control.

Assay [1] concerns UT-7, K562 and Ba/F3 cell lines. Description: MTT colorimetric cell proliferation assay, statements across the three cell lines. It is filed as cell-based, human and mouse. As for the experimental part: (§1) The anti-cancer activities of the compounds of the invention have been determined in-vitro in human and mouse leukemia cell lines. The procedure was carried out using the colorimetric methyl thiazol tetrazoliumbromide (MTT) assay for measuring cell proliferation (Carmichael et al., (1987), Cancer Res. 47: 936-942).
(§2) The Human leukemia cell lines K562 (Lozzio and Lozzio (1975) Blood, 45, 321-334) and UT7 (Komatsu et al. (1991), Cancer Res. 51, 341-348) were grown in RPMI 1640 and IMDM medium respectively, supplemented with 10% fetal bovine serum (FBS), 2 mM L-glutamine, 100 ug/ml streptomycin and 100 u/ml penicillin. The murine Ba/F3 cell line stably transfected with the erythropoietin receptor (EPO-R) cDNA (D'Andrea et al., (1991), Mol. Cell. Biol. 11, 1980-1987) was cultured in RPMI medium supplemented with recombinant human EPO (rHuEPO, 0.5 U/ml). UT7 cells were cultured in the presence of 2 U/ml rHuEPO. Cells were maintained at 37° C. in a 5% CO2 humidified incubator.
(§3) Cells (4×10^3) were seeded in triplicate into 96-well, flat-bottom culture plates and grown in the presence of the compounds at different concentrations for 24, 48 and 72 hours. Untreated cells served as control. After incubation with the compound, cell growth was determined using the colorimetric methylthiazole tetrazolium bromide (MTT) assay (Mosmann (1983), J Immunol Methods 65, 55-63). Briefly, MTT was added to a final concentration of 5 μg/ml to each well and further incubated for 4 hours at 37° C. After complete solubilization of the dye by acid/alcohol (0.04 N HCl in 2-propanol), plates were read at 570 nm in an ELISA reader, reference 690 nm. Growth of cells exposed to treatment was calculated as the percent of optical density (OD) of the compound-treated cells to that of the non-treated cells.

The test system of assay [2] is Ba/F3 cells expressing the EPO-R. Description: MTT colorimetric cell proliferation assay, Ba/F3 cells expressing EPO-R. It is filed as cell-based, murine. The method, then:
as §1, §2, §3

For assay [3], the system named is Ba/F3, K562 and UT7 cell lines. Description: Cell morphology by phase contrast microscopy. Conditions: 0.01 μM or 0.2 μM, over-night. The class given is cell-based, human and mouse. As for the experimental part: Cells were viewed in phase contrast microscopy. The size bar indicates a size of 15 um.
The potential effects of Salarin C on cell proliferation were also tested. Human leukemic cell lines UT-7 and K562, and the murine pro B cell line Ba/F3 which stably expresses the EPO receptor (EPO-R) were used as targets. […] Salarin C at concentrations of 0.0005-0.5 μg/ml was added to the cells for 24 hours, and cell viability was determined by the MTT assay (FIG. 24B). ˜50% inhibition of cell proliferation was obtained at 0.5 μg/ml (1 μM) of Salarin C for the UT-7 cell line and at 0.05 μg/ml (0.1 μM) for the K562 cell line. […] The effect of Salarin C on cell viability was also observed by microscopy (FIG. 25).

A further assay has as its system K562. As to the kind of experiment: MTT colorimetric cell proliferation assay, K562 cells. It is filed as cell-based, human. As for the experimental part: as §1, §2, §3
The subject of a further assay is UT7. As to the kind of experiment: MTT colorimetric cell proliferation assay, UT7 cells. The class given is cell-based, human. Conditions: for inhibition of cell growth, dose and time dependence: various concentrations, 24, 48 and 72 hours. As for the experimental part:
as §1, §2, §3

Regarding `CCCCCCCC(=O)OCC/C=C/C1OC1C1OC(=O)/C=C\C=C\c2nc(oc2C)/C=C(/C)CCC2OC2C1OC(=O)NC(C)=O` (centres unmarked) [Salarin C], in assay [1] (0.5 μg/ml, 72 h, three tested cell lines), the relative potency entry is “more potent than Salarins A and B and Tulearin A”. For the same compound, the “anti-proliferative activity, dose dependence” value in assay [1] (0.0005-0.5 μg/ml, 24 hours) is on record as “dose-dependent”. Moreover, the IC50 in assay [1] (24 hours, across the tested cell lines, read-out: effective concentration range (IC50)) is 100 to 1000 nM. For the same compound, the proliferation entry in assay [2] (Ba/F3 cells, 0.1 μM, 24 hours) was “completely arrested”. Besides, the cell viability entry in assay [2] (Ba/F3 cells, 0.5 μg/ml (1 μM), 72 h) is on record as “abolished nearly all viability”; with K562 (0.5 μg/ml (1 μM), 72 h), “abolished nearly all viability”; in the assay on UT7 (UT-7 cells, 0.5 μg/ml (1 μM), 72 h) it was “abolished nearly all viability”. Also, the “cell viability and morphology by microscopy” value in assay [3] is “lower viability and characteristics of apoptotic cells”. Moreover, the inhibition at 0.1 µM in the assay with K562 (Homo sapiens, 0.05 μg/ml (0.1 μM), 24 hours) is around 50%. In the assay on UT7 (Homo sapiens, UT7, UT-7 cells, 0.5 μg/ml (1 μM), 24 hours), this compound had an inhibition at 1 µM of around 50%.

As to `CCCCC/C=C/C(C)=C/C1CC(C)C/C=C/CCC(O)C(OC(N)=O)CCC(C)CC(O)C(C)C(=O)O1` (centres unmarked) [Tulearin A], the inhibition at 0.5 µg/mL is 62% in the assay with K562 (Homo sapiens, 0.5 ug/ml, 72 h of exposure) and 35% in the assay on UT7 (Homo sapiens, UT7 cells, 0.5 ug/ml, 72 h of exposure). Also, the “inhibition of cell growth, dose and time dependence” value with K562 (various concentrations, 24, 48 and 72 hours) was “in a dose and time dependent manner”; in the assay with UT7 (UT7 cells), “in a dose and time dependent manner”.

In the case of `CCCCCCCC(=O)OCC/C=C/C1OC1C1OC(=O)/C=C\C=C\C(=O)N(C(C)=O)C(=O)/C=C(/C)CCC2OC2C1OC(=O)NC(C)=O` (centres unmarked) [Salarin A], in assay [2] (Mus musculus, BaF3, Ba/F3 cells expressing EPO-R, 0.5 ug/ml, 72 h of exposure), testing at 0.5 µg/mL gave an inhibition of 48%. In addition, in the assay on UT7 (Homo sapiens, UT7 cells, 1 μg/ml, 72 h of exposure), at 1 µg/mL the inhibition was 45%. Moreover, in the assay on UT7 (UT7 cells), the “inhibition of cell growth, dose and time dependence” value was “in a dose and time dependent manner”.
